Assay results published in publication PMC5809559, “DYRK1A inhibition and cognitive rescue in a Down syndrome mouse model are induced by new fluoro-DANDY derivatives” (Scientific Reports, 2018).
Read-outs that look alike come from different tables or passages of the source.

Experiments:
[1] = target: T1, DYRK1A catalytic domain (DYRK1A-ΔC) (Rattus norvegicus, UniProt Q63470); assay: In vitro DYRK1A kinase inhibition, UFLC assay with fluorescent peptide substrate; format: biochemical; details: IC50, in vitro inhibition of DYRK1A, 3,5-diaryl-7-azaindoles 5a-5g, Fig. 5
T1 construct: The cDNA coding for the catalytic domain (residues 1-502) of rat DYRK1A; 6xHis; made in house; host or cells: E. coli BL21(DE3), pET28

[2] = Plasma and brain homogenate concentrations after Morris Water Maze (UHPLC-MS/MS); format: in vivo, mice; details: for average plasma concentration: 20 mg/kg i.p. daily, after MWM; for Kp: mouse, brain, intraperitoneal, 20 mg/kg, read-out: partition coefficient at steady state (Kp = brain concentration/plasma concentration)
Procedure: […]. To that end, all animals were sacrificed directly after the Morris Water Maze (MWM) and plasma and brain homogenates (one hemisphere) were extracted and analyzed. […]. […] […]. However, Kp values might be underestimated due to high plasma levels that could saturate efflux transport to the brain.
All plasma and brain homogenate extracts were analyzed by an ultra-high performance liquid chromatography (UHPLC) system coupled to a triple-quadrupole mass spectrometer (Dionex Ultimate 3000 RSLC system coupled to a TSQ Vantage EMR, Thermo Scientific, Les Ulis, France). UHPLC separation was performed using a C18 column (HSS T3, 2.1 mm × 150 mm, 1.7 μm, Waters, Guyancourt, France) equipped with a guard column (HSS T3, 2.1 mm × 5 mm, 1.7 μm, Waters, Guyancourt, France) and maintained at 40 °C. The mobile phases were water, 0.1% formic acid (A) and acetonitrile (B). […]. Injection volume was 4 µL and the autosampler was maintained at 6 °C. Ionization was performed with a heated electrospray ionization source in positive mode. The source parameters were set as follows: spray voltage 3350 V, vaporizer temperature 250 °C, sheath gas (N2) pressure 55 psi, auxiliary gas pressure (N2) 25 psi, capillary temperature 350 °C. Analysis was performed under the Selected Reaction Monitoring (SRM) mode using several transitions for each compound at optimized collision energies (see Table SI2 and Figure SI1). […]. Data acquisition was performed using ThermoScientific Xcalibur 2.1 software system. All samples were analyzed in triplicate.
Two compounds, V[34] (Fig. 9) and 5d, were tested as internal standard (IS). […] Calibration curve points and quality control (QC) points were realized in spiked plasma or brain homogenate samples (Figure SI2). […]. Samples with concentrations above the upper calibration point were diluted to be in the calibration range. Limit of quantification (LOQ) was determined as the lowest point of the calibration curve at 1.6 pg/μL. QC samples were prepared at 14.5 and 58 pg/μL to validate the between-run precision (n = 3, RSD of 13% and 5%, respectively), between-run trueness was 95 and 88% respectively. […]. Limit of quantification (LOQ) was determined as the lowest point of the calibration curve at 1.6 pg/mg. QC samples were prepared at 3.2 and 22.4 pg/mg to validate the between-run precision (n = 3, RSD of 8% and 2% respectively), between-run trueness was 129 and 93% respectively.
Immediately following last day of training in the MWM, mice were sacrificed by decapitation for maximal blood collection and the brain was immediately extracted from the skull, the cerebellum removed and the hemispheres separated and frozen at −80 °C. Plasma was obtained as described above. […]. Subsequently, the IS was added to 400 µL of homogenate which was then centrifuged (12 min, 14000 × g, 4 °C). The supernatant was evaporated and transferred into 40 µL acetonitrile/methanol/water (2/2/1). After centrifugation (12 min, 14000 × g, 4 °C), 4 µL of supernatant was used for UHPLC-MS/MS analysis.

Ts65Dn mice = assay: Morris water maze spatial learning in Ts65Dn and WT mice; format: in vivo
Text: Ts65Dn mice, the best-characterized and most widely used mouse model of DS, are trisomic for a segment of chromosome 16 extending between genes Mrp139 and Znf295 and containing approximately 92 orthologues of human chromosome 21 genes[42] including the Dyrk1a gene. […] Mice were trained for a total of 5 days to learn a fixed spatial goal location in the maze. […] In this paradigm, learning occurred when mice succeeded in decreasing their traveled distances after repeated training trials.
Male Ts65Dn (n = 8) mice and euploid wild-type (WT) littermates (n = 10) were purchased from the Jackson Laboratory (Bar Harbor, Maine, USA). As the recessive retinal degeneration 1 mutation Pde6brd1 in the original Ts65Dn mice causes blindness in homozygotes, we used an alternative strain (SN 5252) that is wild-type for Pde6b, thereby preventing retinal degeneration. Housing conditions comprised a standard cage (air-controlled system) with ad libitum food and water and a 12 h light/dark cycle. Mice received at least one week of habituation to the animal facility, followed by three days of handling (three minutes per mouse per day). […] Treatment was continued during the MWM protocol (mice being injected 30 min before each daily session).
Vehicle consisted of an identical composition without compound 5a.
A white pool with a diameter of 150 cm was filled with water made opaque with non-toxic white paint (Acusol OP301, Rohm and Haas Company, Landskrone, Sweden) and kept at a constant temperature (20–21.5 °C). A 9-cm diameter platform was placed in the south-east (SE) quadrant of the pool, 1 cm under the water surface. The light intensity in the experimental room was kept constant at 70 Lux. Mice were habituated to the room for at least 30 min before starting each daily session. The acquisition phase comprised 5 days of training, four trials per day with an inter-trial interval of at least 20 min to minimize motor fatigue. The order of release positions in the pool was pseudo-randomly at the four cardinal points and changed every day to maximize spatial allocentric training and formation of a “cognitive map”. Each trial ended as soon as the mouse found the platform or after a maximum of 90 s, after which the animal was gently manually guided to the platform. Mice were left on the platform for 20 s before they were gently dried with a towel and individually placed in a cage with paper towels for further drying. The animals returned to their homecage after 5 min.
ANY-maze Video Tracking System (Stoelting, USA) was used to record all trials. Calculated measures included 1) thigmotaxis (percent distance traveled in the 10 cm wide peripheral annulus of the pool) indicative of unsuccessful spatial strategy to locate the platform and 2) the Corrected Integrated Pathway Length (CIPL) an unbiased measure of distance-to-platform travelled taking into account the animal’s speed and the initial distance from the goal for each starting position.

## Oc1ccc(-c2cnc3[nH]cc(-c4ccc(F)cc4)c3c2)cc1O [Compound 5a, 3-(4-fluorophenyl)-5-(3,4-dihydroxyphenyl)-1H-pyrrolo[2,3-b]pyridine]
[1]
  IC50: 20.7 nM
[2]; Ts65Dn mice, n = 9
  average plasma concentration: 0.84 ± 0.54 µM
[2]; Ts65Dn mice, n = 5, assuming vascular space 15 µL/g tissue
  mean brain concentration: 6.67 ± 4.64 µM
[2]; WT mice, n = 10
  average plasma concentration: 0.50 ± 0.28 µM
[2]; WT mice, n = 4, assuming vascular space 15 µL/g tissue
  mean brain concentration: 6.61 ± 5.35 µM
[2]; Ts65Dn mice
  Kp: 6.43 ± 3.38
[2]; WT mice
  Kp: 10.8 ± 9.55
Ts65Dn mice; Ts65Dn mice, 20 mg/kg i.p.
  change of thigmotaxis between vehicle and 5a conditions: −12.9%
Ts65Dn mice; Ts65Dn mice, 20 mg/kg i.p. daily, vs vehicle, p < 0.05
  spatial learning performance (CIPL) in Morris water maze: significant improvement of performance
Ts65Dn mice; Ts65Dn mice, 20 mg/kg i.p., comparison with 5a-treated WT mice p > 0.99
  swim speed in Morris water maze: restored normal swim speed
Ts65Dn mice; WT mice, 20 mg/kg i.p.
  change of thigmotaxis between vehicle and 5a conditions: −6.5%
Ts65Dn mice; wild type mice, 20 mg/kg i.p. daily, vs vehicle
  effect on Morris water maze performance: no observable effect
